T1: UGT2B17 (Homo sapiens, UniProt O75795)
T1 construct: recombinant human UGT2B17 supersomes (insect cells infected with baculovirus)
T1 sequence (O75795 24-530): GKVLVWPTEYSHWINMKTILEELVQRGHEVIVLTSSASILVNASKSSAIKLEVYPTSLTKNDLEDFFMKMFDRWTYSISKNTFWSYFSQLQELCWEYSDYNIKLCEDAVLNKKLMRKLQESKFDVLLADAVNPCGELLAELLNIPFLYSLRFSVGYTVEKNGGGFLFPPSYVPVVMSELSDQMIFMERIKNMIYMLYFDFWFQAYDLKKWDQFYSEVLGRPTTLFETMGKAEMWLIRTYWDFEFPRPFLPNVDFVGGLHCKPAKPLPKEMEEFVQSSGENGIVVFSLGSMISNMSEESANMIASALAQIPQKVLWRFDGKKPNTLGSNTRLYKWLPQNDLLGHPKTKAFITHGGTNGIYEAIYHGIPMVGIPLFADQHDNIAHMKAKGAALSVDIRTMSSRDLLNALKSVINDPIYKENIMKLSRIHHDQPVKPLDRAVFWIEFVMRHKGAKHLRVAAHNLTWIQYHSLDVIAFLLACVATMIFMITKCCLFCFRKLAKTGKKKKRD

B1: UGT2B17 (Homo sapiens) (protein)
chain: GKVLVWPTEYSHWINMKTILEELVQRGHEVIVLTSSASILVNASKSSAIKLEVYPTSLTKNDLEDFFMKMFDRWTYSISKNTFWSYFSQLQELCWEYSDYNIKLCEDAVLNKKLMRKLQESKFDVLLADAVNPCGELLAELLNIPFLYSLRFSVGYTVEKNGGGFLFPPSYVPVVMSELSDQMIFMERIKNMIYMLYFDFWFQAYDLKKWDQFYSEVLGRPTTLFETMGKAEMWLIRTYWDFEFPRPFLPNVDFVGGLHCKPAKPLPKEMEEFVQSSGENGIVVFSLGSMISNMSEESANMIASALAQIPQKVLWRFDGKKPNTLGSNTRLYKWLPQNDLLGHPKTKAFITHGGTNGIYEAIYHGIPMVGIPLFADQHDNIAHMKAKGAALSVDIRTMSSRDLLNALKSVINDPIYKENIMKLSRIHHDQPVKPLDRAVFWIEFVMRHKGAKHLRVAAHNLTWIQYHSLDVIAFLLACVATMIFMITKCCLFCFRKLAKTGKKKKRD

How the values were obtained:
UGT2B17 = target: T1, UGT2B17; experiment: HPLC testosterone glucuronidation assay in recombinant supersomes, Lineweaver-Burk analysis at […] salicylic acid; type: biochemical
purified protein = substrate: C[C@]12CC[C@H]3[C@@H](CCC4=CC(=O)CC[C@@]43C)[C@@H]1CC[C@@H]2O; experiment: purified protein; details: UDPGA; MgCl2

Row | Molecule | inhibition mode (UGT2B17) | Km (purified protein)
1 | O=C(O)c1ccccc1O [salicylic acid] | UGT2B17 enzyme activity was inhibited uncompetitively by salicylic acid based on the in vitro inhibition study in human supersomes | 
2 | B1 |  | 259.74 µM

— article PMC8348562, “Potential Assessment of UGT2B17 Inhibition by Salicylic Acid in Human Supersomes In Vitro” (Molecules, 2021)
